US10208019B2, “GLP-1 receptor agonists and uses thereof” (Pfizer Inc., priority 2016, dated 2019)
pEC50: −log10 of the molar value. Where two headings read alike, the source gives them in different places.

Legend:
human GLP-1R [1] = target: human GLP-1R (Homo sapiens, UniProt P43220, G168S); experiment: CHO GLP-1R Clone H6—Assay 1: HTRF cAMP cell-based functional agonist assay (high GLP-1R density); conditions: for pEC50: read-out: Assay 1 EC50, CHO GLP-1R Clone H6, cAMP HTRF, geometric mean
Protocol: GLP-1R-mediated agonist activity was determined with a cell-based functional assay utilizing an HTRF (Homogeneous Time-Resolved Fluorescence) cAMP detection kit (cAMP HI Range Assay Kit; CisBio cat #62AM6PEJ) that measures cAMP levels in the cell. The method is a competitive immunoassay between native cAMP produced by the cells and exogenous cAMP labeled with the dye d2. The tracer binding is visualized by a mAb anti-cAMP labeled with Cryptate. The specific signal (i.e. energy transfer) is inversely proportional to the concentration of cAMP in either standard or experimental sample.
The human GLP-1R coding sequence (NCBI Reference Sequence NP_002053.3, including naturally-occurring variant Gly168Ser) was subcloned into pcDNA3 (Invitrogen) and a cell line stably expressing the receptor was isolated (designated Clone H6).
Cells were removed from cryopreservation, re-suspended in 40 mL of Dulbecco's Phosphate Buffered Saline (DPBS-Lonza Cat #17-512Q) and centrifuged at 800×g for 5 min at 22° C. The cell pellet was then re-suspended in 10 mL of growth medium [DMEM/F12 1:1 Mixture with HEPES, L-Gln, 500 mL (DMEM/F12 Lonza Cat #12-719F), 10% heat inactivated fetal bovine serum (Gibco Cat #16140-071), 5 mL of 100× Pen-Strep (Gibco Cat #15140-122), 5 mL of 100× L-Glutamine (Gibco Cat #25030-081) and 500 μg/mL Geneticin (G418) (Invitrogen #10131035)]. A 1 mL sample of the cell suspension in growth media was counted on a Becton Dickinson ViCell to determine cell viability and cell count per mL. The remaining cell suspension was then adjusted with growth media to deliver 2000 viable cells per well using a Matrix Combi Multidrop reagent dispenser, and the cells were dispensed into a white 384 well tissue culture treated assay plate (Corning 3570). The assay plate was then incubated for 48 hours at 37° C. in a humidified environment in 5% carbon dioxide.
Varying concentrations of each compound to be tested (in DMSO) were diluted in assay buffer (HBSS with Calcium/Magnesium (Lonza/BioWhittaker cat #10-527F)/0.1% BSA (Sigma Aldrich cat #A7409-1L)/20 mM HEPES (Lonza/BioWhiftaker cat #17-737E) containing 100 μM 3-isobutyl-1-methylxanthin (IBMX; Sigma cat #15879). The final DMSO concentration is 1%.
After 48 hours, the growth media was removed from the assay plate wells, and the cells were treated with 20 μL of the serially diluted compound in assay buffer for 30 minutes at 37° C. in a humidified environment in 5% carbon dioxide. Following the 30 minute incubation, 10 μL of labeled d2 cAMP and 10 μL of anti-cAMP antibody (both diluted 1:20 in cell lysis buffer; as described in the manufacturer's assay protocol) were added to each well of the assay plate. The plates were then incubated at room temperature and after 60 minutes, changes in the HTRF signal were read with an Envision 2104 multi-label plate reader using excitation of 330 nm and emissions of 615 and 665 nm. Raw data were converted to nM cAMP by interpolation from a cAMP standard curve (as described in the manufacturer's assay protocol) and the percent effect was determined relative to a saturating concentration of the full agonist GLP-17-36 (1 μM) included on each plate. EC50 determinations were made from agonist dose-response curves analyzed with a curve fitting program using a 4-parameter logistic dose response equation.

human GLP-1R [2] = target: human GLP-1R (Homo sapiens (Human), UniProt P43220, L260F); experiment: CHO GLP-1R Clone C6—Assay 2: HTRF cAMP cell-based functional agonist assay (low GLP-1R density); conditions: for Emax: read-out: Assay 2 Emax (%); for pEC50: CHO GLP-1R Clone C6, cAMP HTRF, geometric mean
human GLP-1R (Homo sapiens (Human), UniProt P43220, L260F), sequence (P43220 24-463 L260F): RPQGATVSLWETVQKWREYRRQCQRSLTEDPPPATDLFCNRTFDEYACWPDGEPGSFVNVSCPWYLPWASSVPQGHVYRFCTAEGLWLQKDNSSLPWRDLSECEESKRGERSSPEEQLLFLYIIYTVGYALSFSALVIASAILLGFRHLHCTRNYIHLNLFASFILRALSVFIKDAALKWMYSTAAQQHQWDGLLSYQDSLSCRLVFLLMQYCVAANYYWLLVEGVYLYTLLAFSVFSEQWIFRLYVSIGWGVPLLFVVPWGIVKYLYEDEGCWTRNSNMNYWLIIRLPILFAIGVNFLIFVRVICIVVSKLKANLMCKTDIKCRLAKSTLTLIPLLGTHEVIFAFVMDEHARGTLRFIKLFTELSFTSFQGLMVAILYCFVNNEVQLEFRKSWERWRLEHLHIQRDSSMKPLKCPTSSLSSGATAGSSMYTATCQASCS

[3] = read-out: Assay 1 Emax (%), CHO GLP-1R Clone H6, relative to saturating concentration of full agonist GLP-1 (1 μM), arithmetic mean
[4] = CHO GLP-1R Clone C6, relative to saturating concentration of full agonist GLP-1 (1 μM), arithmetic mean

human GLP-1R (Homo sapiens, UniProt P43220, G168S), sequence (P43220 24-463 G168S limits assumed): as the sequence (P43220 24-463 L260F) above, with G145S, F237L counted along it

Compound	pEC50 (human GLP-1R [1])	Emax (human GLP-1R [1]; [3])	pEC50 (human GLP-1R [2])	Emax (human GLP-1R [2]; [4])	Assay 1 Emax (%) (human GLP-1R [1]; CHO GLP-1R Clone H6, relative to saturating concentration of full agonist GLP-1 (1 μM), arithmetic mean)	Emax (human GLP-1R [1]; read-out: Assay 1 Emax (%))	Emax (human GLP-1R [2])
N#Cc1ccc(COc2cccc(C3CCN(Cc4nc5ccc(C(=O)O)cc5n4C[C@@H]4CCO4)CC3)n2)c(F)c1 [Example 4A-01, 2-[(4-{6-[(4-cyano-2-fluorobenzyl)oxy]pyridin-2-yl}piperidin-1-yl)methyl]-1-[(2S)-oxetan-2-ylmethyl]-1H-benzimidazole-6-carboxylic acid]						79%	100%
N#Cc1ccc(COc2cccc(C3CCN(Cc4nc5ccc(C(=O)O)cc5n4Cc4ncco4)CC3)n2)c(F)c1 [Example 7A-01, 2-[(4-{6-[(4-cyano-2-fluorobenzyl)oxy]pyridin-2-yl}piperidin-1-yl)methyl]-1-(1,3-oxazol-2-ylmethyl)-1H-benzimidazole-6-carboxylic acid]		84%		86%			
COCCn1c(CN2CCC(c3cccc(OCc4ccc(C)cc4)n3)CC2)nc2ccc(C(=O)O)cc21 [Example 8A-01, Ammonium 2-((4-(6-((4-Methylbenzyl)oxy)pyridin-2-yl)piperidin-1-yl)methyl)-1-(2-methoxyethyl)-1H-benzo[d]imidazole-6-carboxylate]	7.00	99%	5.96	90%			
COCCn1c(CN2CCC(c3cccc(OCc4cc(F)c(Cl)cc4F)n3)CC2)nc2ccc(C(=O)O)cc21 [Example 8A-03, 2-((4-(6-((4-chloro-2,5-difluorobenzyl)oxy)pyridin-2-yl)piperidin-1-yl)methyl)-1-(2-methoxyethyl)-1H-benzo[d]imidazole-6-carboxylic acid]	7.74	84%	6.46	77%			
COCCn1c(CN2CCC(c3cccc(OCc4c(F)cc(Cl)cc4F)n3)CC2)nc2ccc(C(=O)O)cc21 [Example 8A-04, 2-((4-(6-((4-chloro-2,6-difluorobenzyl)oxy)pyridin-2-yl)piperidin-1-yl)methyl)-1-(2-methoxyethyl)-1H-benzo[d]imidazole-6-carboxylic acid]	6.92	79%	5.77	88%			
Cn1c(CN2CCC(c3cccc(OCc4ccc(Cl)cc4)n3)CC2)nc2ccc(C(=O)O)cc21 [Example 9A-07, 2-[(4-{6-[(4-chlorobenzyl)oxy]pyridin-2-yl}piperidin-1-yl)methyl]-1-methyl-1H-benzimidazole-6-carboxylic acid]	6.77		5.68	71%	78%		
Cn1c(CN2CCC(c3cccc(OCc4ccc(C#N)cc4)n3)CC2)nc2ccc(C(=O)O)cc21 [Example 9A-15, 2-[(4-{6-[(4-cyanobenzyl)oxy]pyridin-2-yl}piperidin-1-yl)methyl]-1-methyl-1H-benzimidazole-6-carboxylic acid]	6.74	78%	5.46	90%			
O=C(O)c1ccc2nc(CN3CCC(c4cccc(OCc5ccc(Cl)cc5F)n4)CC3)n(CCN3CCCC3=O)c2c1 [Example 10A-12]	6.96	68%	5.36	110%			
C[C@H]1CN(c2cccc(OCc3ccc(Cl)cc3F)n2)CCN1Cc1nc2ccc(C(=O)O)cc2n1Cc1cocn1 [Example 10A-13]	8.39	67%	6.77	75%			
C[C@H]1CN(c2cccc(OCc3ccc(C#N)cc3F)n2)CCN1Cc1nc2ccc(C(=O)O)cc2n1Cc1cocn1 [Example 10A-14]	8.09	74%	6.66	93%			

Further lines, with some results ahead:

pEC50 (human GLP-1R [1])	Emax (human GLP-1R [1]; [3])	pEC50 (human GLP-1R [2])	Emax (human GLP-1R [2]; [4])	Assay 1 Emax (%) (human GLP-1R [1]; CHO GLP-1R Clone H6, relative to saturating concentration of full agonist GLP-1 (1 μM), arithmetic mean)	Compound	Emax (human GLP-1R [1]; read-out: Assay 1 Emax (%))	Emax (human GLP-1R [2])
9.47	78%	8.13	94%		N#Cc1ccc(COc2cccc(N3CCN(Cc4nc5ccc(C(=O)O)cc5n4C[C@@H]4CCO4)CC3)n2)c(F)c1 [Example 5A-01, 2-[(4-{6-[(4-Cyano-2-fluorobenzyl)oxy]pyridin-2-yl}piperazin-1-yl)methyl]-1-[(2S)-oxetan-2-ylmethyl]-1H-benzimidazole-6-carboxylic acid]		
9.12	88%	8.06	100%		N#Cc1ccc(COc2cccc(C3CCN(Cc4nc5ccc(C(=O)O)nc5n4C[C@@H]4CCO4)CC3)n2)c(F)c1 [Example 6A-01, 2-[(4-{6-[(4-cyano-2-fluorobenzyl)oxy]pyridin-2-yl}piperidin-1-yl)methyl]-3-[(2S)-oxetan-2-ylmethyl]-3H-imidazo[4,5-b]pyridine-5-carboxylic acid]		
8.49	77%	7.37	84%		O=C(O)c1ccc2nc(CN3CCC(c4cccc(OCc5ccc(Cl)cc5F)n4)CC3)n(Cc3cnco3)c2c1 [Example 10A-01, 2-[(4-{6-[(4-Chloro-2-fluorobenzyl)oxy]pyridin-2-yl}piperidin-1-yl)methyl]-1-(1,3-oxazol-5-ylmethyl)-1H-benzimidazole-6-carboxylic acid]		
9.47	89%	8.66	97%		CCn1cncc1Cn1c(CN2CCC(c3cccc(OCc4ccc(Cl)cc4F)n3)CC2)nc2ccc(C(=O)O)cc21 [Example 10A-02, 2-[(4-{6-[(4-chloro-2-fluorobenzyl)oxy]pyridin-2-yl}piperidin-1-yl)methyl]-1-[(1-ethyl-1H-imidazol-5-yl)methyl]-1H-benzimidazole-6-carboxylic acid]		
8.62	71%	7.42	83%		O=C(O)c1ccc2nc(CN3CCC(c4cccc(OCc5ccc(F)cc5F)n4)CC3)n(C[C@@H]3CCO3)c2c1 [Example 10A-05, 2-[(4-{6-[(2,4-difluorobenzyl)oxy]pyridin-2-yl}piperidin-1-yl)methyl]-1-[(2S)-oxetan-2-ylmethyl]-1H-benzimidazole-6-carboxylic acid]		
8.55	82%	7.17	81%		CCn1cnnc1Cn1c(CN2CCC(c3cccc(OCc4ccc(Cl)cc4F)n3)CC2)nc2ccc(C(=O)O)cc21 [Example 10A-07]		
9.26	77%	8.04	94%		O=C(O)c1ccc2nc(CN3CCN(c4cccc(OCc5ccc(Cl)cc5F)n4)CC3)n(C[C@@H]3CCO3)c2c1 [Example 10A-08, 2-[(4-{6-[(4-chloro-2-fluorobenzyl)oxy]pyridin-2-yl}piperazin-1-yl)methyl]-1-[(2S)-oxetan-2-ylmethyl]-1H-benzimidazole-6-carboxylic acid]		
9.00	95%	8.00	120%		C[C@H]1CN(c2cccc(OCc3ccc(C#N)cc3F)n2)CCN1Cc1nc2ccc(C(=O)O)nc2n1C[C@@H]1CCO1 [Example 10A-09, 2-{[(2S)-4-{6-[(4-cyano-2-fluorobenzyl)oxy]pyridin-2-yl}-2-methylpiperazin-1-yl]methyl}-3-[(2S)-oxetan-2-ylmethyl]-3H-imidazo[4,5-b]pyridine-5-carboxylic acid]		
9.52	84%	8.39	100%		C[C@H]1CN(c2cccc(OCc3ccc(Cl)cc3F)n2)CCN1Cc1nc2ccc(C(=O)O)nc2n1C[C@@H]1CCO1 [Example 10A-10, 2-{[(2S)-4-{6-[(4-chloro-2-fluorobenzyl)oxy]pyridin-2-yl}-2-methylpiperazin-1-yl]methyl}-3-[(2S)-oxetan-2-ylmethyl]-3H-imidazo[4,5-b]pyridine-5-carboxylic acid]		
